Assay results reported in patent US20030224000A1, “Methods for blocking or alleviating staphylococcal nasal colonization by intranasal application of monoclonal antibodies” (priority 2001, published 2003).

Columns and labels:
[1] = tested on: S. aureus strain MBT 5040; assay: Minimal inhibitory concentration (MIC); assay type: cell-based; details: Staphylococcus aureus; S. aureus MBT 5040, clinical MRSA strain
[2] = tested on: streptomycin resistant S. aureus type 5 (SA5); assay: Mouse nasal colonization model, S. aureus preincubated with MAb before instillation; assay type: in vivo, mice
Protocol: Kiser et al. developed a staphylococcal nasal colonization model in mice to study staphylococcal factors that influence nasal colonization (30). […] Briefly, streptomycin resistant S. aureus type 5 was grown on high salt Columbia agar to promote capsule formation. The bacteria were washed with sterile saline to remove media components and resuspended at ˜10^8 organisms/animal dose in saline containing various concentrations and combinations of anti-staphylococcal or irrelevant control MAbs. Following a preincubation of 1 hr, the bacteria were repelleted and resuspended in a final volume of 10 μl per animal dose in either saline or saline containing antibody. Mice that have been maintained on streptomycin-containing water for 24 hrs were sedated with anesthesia. Staphylococci were instilled in the nares of the mice by pipetting without contact with the nose.
Generally, following four to seven days during which the animals were maintained on streptomycin-containing water, the animals were sacrificed and the noses removed surgically and dissected. Nasal tissue was vortexed vigorously in saline plus 0.5% Tween-20 to release adherent bacteria, and the saline was plated on Columbia blood agar and tryptic soy agar containing streptomycin to determine colonization.
According to this procedure, streptomycin-resistant S. aureus type 5 (SA5, 1 to 3×10^8/mouse) was preincubated for 1 hr in saline or saline containing A110 (2-3 mg purified IgG/mouse dose of 1-3×10^8 bacteria). Following preincubation, the bacteria were pelleted and resuspended in saline or in saline containing A110 (10 μl/mouse dose). Ten mice each were intranasally instilled with SA5 in saline or SA5 in A110. Table 4 tabulates three experiments showing that nasal application of A110 in PBS blocks and alleviates staphylococcal nasal colonization.

[3] = Table 5: 2 × 10^8 SA5 instilled with MAb, 2 mg/mouse dose

Molecule	MIC [1] [µg/mL]	Effect on staphylococcal nasal colonization in mice ([2]; MAb in saline, Table 5 experiment)	Average number of colonies recovered per mouse [2, 3]	Number of mice colonized [2, 3]
COc1cccc(OC)c1C(=O)N[C@@H]1C(=O)N2[C@@H]1SC(C)(C)[C@@H]2C(=O)O [methicillin]	> 36	–	–	–
Medi 493: irrelevant control, chimeric IgG1 MAb against RSV (MedImmune)	–	no effect	137	9/9
